Measurements as given in patent US8440652B2, “MST1 kinase inhibitors and methods of their use” (Lexicon Pharmaceuticals, Inc., priority 2011, dated 2013).
Where two headings read alike, the source gives them in different places.

Molecular target: T1, MST1 (Homo sapiens, UniProt Q13043)
T1 sequence (Q13043 1-487): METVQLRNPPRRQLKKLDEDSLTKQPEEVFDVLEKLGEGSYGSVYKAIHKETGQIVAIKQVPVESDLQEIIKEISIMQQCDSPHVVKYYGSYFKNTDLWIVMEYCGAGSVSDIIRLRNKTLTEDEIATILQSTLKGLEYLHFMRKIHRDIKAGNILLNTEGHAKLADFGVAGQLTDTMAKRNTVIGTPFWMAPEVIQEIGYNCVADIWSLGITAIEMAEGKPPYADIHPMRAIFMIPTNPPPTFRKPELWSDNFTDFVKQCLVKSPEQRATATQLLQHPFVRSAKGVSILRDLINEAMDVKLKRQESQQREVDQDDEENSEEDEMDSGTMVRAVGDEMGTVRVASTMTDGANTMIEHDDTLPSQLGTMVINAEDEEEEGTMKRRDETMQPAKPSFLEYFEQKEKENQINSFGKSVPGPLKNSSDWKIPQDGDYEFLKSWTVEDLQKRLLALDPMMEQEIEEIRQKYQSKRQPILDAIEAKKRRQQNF
Assay: In vitro measurement of MST1 inhibition (Z′-Lyte kinase assay)
Assay type: biochemical

[1] = 1 μM ATP, read-out: IC50 (μM) 1 μM ATP
[2] = 50 μM ATP, read-out: IC50 (μM) 50 μM ATP

IC50 [1] [µM]	IC50 [2] [µM]	Compound
< 0.05	< 0.01	CC(C)(C)c1ccc(-c2cnc(N)c(-c3ccc4c(c3)CCNC4=O)n2)cc1 [6-(3-amino-6-(4-(tert-butyl)phenyl)pyrazin-2-yl)-3,4-dihydroisoquinolin-1(2H)-one]
< 0.01	< 0.01	Nc1ncc(-c2ccc(F)cc2)nc1-c1cc2c(cn1)C(=O)NCC2 [6-(3-amino-6-(4-fluorophenyl)pyrazin-2-yl)-3,4-dihydro-2,7-naphthyridin-1(2H)-one]
< 0.05	< 0.01	CCC(=O)c1ccc(-c2cnc(N)c(-c3ccc4c(c3)CCNC4=O)n2)cc1 [6-(3-amino-6-(4-propionylphenyl)pyrazin-2-yl)-3,4-dihydroisoquinolin-1(2H)-one]
< 0.05	< 0.01	Nc1ncc(-c2ccc(S(=O)(=O)N3CCCC34CC4)cc2)cc1-c1ccc2c(c1)CCNC2=O [6-(5-(4-(4-azaspiro[2.4]heptan-4-ylsulfonyl)phenyl)-2-aminopyridin-3-yl)-3,4-dihydroisoquinolin-1(2H)-one]
< 0.15	< 0.05	COC[C@H]1C[C@@H]1N(C)S(=O)(=O)c1ccc(-c2cnc(N)c(-c3ccc4c(c3)CCNC4=O)n2)nc1 [6-(5-amino-6-(1-oxo-1,2,3,4-tetrahydroisoquinolin-6-yl)pyrazin-2-yl)-N-((1S,2S)-2-(methoxymethyl)cyclopropyl)-N-methylpyridine-3-sulfonamide]
< 0.01	< 0.01	CN(C1CC1)S(=O)(=O)c1ccc(-c2cnc(N)c(-c3ccc4c(c3)CCNC4=O)n2)nc1 [6-(5-amino-6-(1-oxo-1,2,3,4-tetrahydroisoquinolin-6-yl)pyrazin-2-yl)-N-cyclopropyl-N-methylpyridine-3-sulfonamide]
< 0.01	< 0.01	[2H]C([2H])([2H])N(C1CC1)S(=O)(=O)c1ccc(-c2cnc(N)c(-c3ccc4c(c3)CCNC4=O)n2)nc1 [6-(5-amino-6-(1-oxo-1,2,3,4-tetrahydroisoquinolin-6-yl)pyrazin-2-yl)-N-cyclopropyl-N-trideuteromethylpyridine-3-sulfonamide]
< 0.01	< 0.01	CCN(C)S(=O)(=O)c1cnc(-c2cnc(N)c(-c3ccc4c(c3)CCNC4=O)n2)cc1C [6-(5-amino-6-(1-oxo-1,2,3,4-tetrahydroisoquinolin-6-yl)pyrazin-2-yl)-N-ethyl-N,4-dimethylpyridine-3-sulfonamide]
< 0.01	< 0.01	CCN(C)S(=O)(=O)c1ccc(-c2cnc(N)c(-c3ccc4c(c3)CCNC4=O)n2)nc1 [6-(5-amino-6-(1-oxo-1,2,3,4-tetrahydroisoquinolin-6-yl)pyrazin-2-yl)-N-ethyl-N-methylpyridine-3-sulfonamide]
< 0.15	< 0.05	CN(C)S(=O)(=O)N1CC=C(c2cnc(N)c(-c3ccc4c(c3)CCNC4=O)c2)CC1 [6-amino-N,N-dimethyl-5-(1-oxo-1,2,3,4-tetrahydroisoquinolin-6-yl)-5′,6′-dihydro-[3,4′-bipyridine]-1′(2′H)-sulfonamide]
< 0.15	< 0.01	Nc1ncc(-c2ccc(F)cc2)nc1-c1ccc2c(c1)C1(CC1)CNC2=O [6′-(3-amino-6-(4-fluorophenyl)pyrazin-2-yl)-2′,3′-dihydro-1′H-spiro[cyclopropane-1,4′-isoquinolin]-1′-one]
< 0.01	< 0.01	Cc1cc(-c2cnc(N)c(-c3ccc4c(c3)CCNC4=O)c2)ncc1S(=O)(=O)NC1CC1 [6′-amino-N-cyclopropyl-4-methyl-5′-(1-oxo-1,2,3,4-tetrahydroisoquinolin-6-yl)-[2,3′-bipyridine]-5-sulfonamide]
< 0.01	< 0.01	Nc1ncc(-c2ccc(S(=O)(=O)NC3CC3)cn2)cc1-c1ccc2c(c1)CCNC2=O [6′-amino-N-cyclopropyl-5′-(1-oxo-1,2,3,4-tetrahydroisoquinolin-6-yl)-[2,3′-bipyridine]-5-sulfonamide]
< 0.01	< 0.01	CN(C1CC1)S(=O)(=O)c1ccc(-c2cnc(N)c(-c3ccc4c(c3)CCNC4=O)c2)nc1 [6′-amino-N-cyclopropyl-N-methyl-5′-(1-oxo-1,2,3,4-tetrahydroisoquinolin-6-yl)-[2,3′-bipyridine]-5-sulfonamide]
< 0.01	< 0.01	CN(C1CC1)S(=O)(=O)c1ccc(-c2cnc(N)c(-c3ccc4c(c3)CCNC4=O)c2)cn1 [6′-amino-N-cyclopropyl-N-methyl-5′-(1-oxo-1,2,3,4-tetrahydroisoquinolin-6-yl)-[3,3′-bipyridine]-6-sulfonamide]
< 0.01	< 0.01	CCN(C)S(=O)(=O)c1ccc(-c2cnc(N)c(-c3ccc4c(c3)CCNC4=O)c2)nc1 [6′-amino-N-ethyl-N-methyl-5′-(1-oxo-1,2,3,4-tetrahydroisoquinolin-6-yl)-[2,3′-bipyridine]-5-sulfonamide]
< 0.01	< 0.01	CCCN(C)S(=O)(=O)c1ccc(-c2cnc(N)c(-c3ccc4c(c3)CCNC4=O)c2)nc1 [6′-amino-N-methyl-5′-(1-oxo-1,2,3,4-tetrahydroisoquinolin-6-yl)-N-propyl-[2,3′-bipyridine]-5-sulfonamide]
< 0.05	< 0.01	N#C[C@]1(c2ccc(-c3cnc(N)c(-c4ccc5c(c4)CCNC5=O)n3)cc2)[C@@H]2COC[C@@H]21 [(1R,5S,6s)-6-(4-(5-amino-6-(1-oxo-1,2,3,4-tetrahydroisoquinolin-6-yl)pyrazin-2-yl)phenyl)-3-oxabicyclo[3.1.0]hexane-6-carbonitrile]
< 0.05	< 0.01	CCNS(=O)(=O)c1ccc(-c2cnc(N)c(-c3ccc4c(c3)CCC/C4=N\O)c2)cc1 [(E)-4-(6-amino-5-(5-(hydroxyimino)-5,6,7,8-tetrahydronaphthalen-2-yl)pyridin-3-yl)-N-ethylbenzenesulfonamide]
< 0.15	< 0.01	CN(C1CC1)S(=O)(=O)c1ccc(-c2cnc(N)c(-c3ccc4c(c3)OC[C@@H](COCc3ccccc3)NC4=O)c2)cc1 [(R)-4-(6-amino-5-(3-((benzyloxy)methyl)-5-oxo-2,3,4,5-tetrahydrobenzo[f][1,4]oxazepin-8-yl)pyridin-3-yl)-N-cyclopropyl-N-methylbenzenesulfonamide]
< 0.01	< 0.01	C[C@@H]1COc2cc(-c3cc(-c4ccc(S(=O)(=O)N(C)C5CC5)cc4)cnc3N)ccc2C(=O)N1 [(R)-4-(6-amino-5-(3-methyl-5-oxo-2,3,4,5-tetrahydrobenzo[f][1,4]oxazepin-8-yl)pyridin-3-yl)-N-cyclopropyl-N-methylbenzenesulfonamide]
< 0.01	< 0.01	C[C@H]1CNc2cc(-c3nc(-c4ccc(S(=O)(=O)N(C)C5CC5)cc4)cnc3N)ccc2C(=O)N1 [(S)-4-(5-amino-6-(3-methyl-5-oxo-2,3,4,5-tetrahydro-1H-benzo[e][1,4]diazepin-8-yl)pyrazin-2-yl)-N-cyclopropyl-N-methylbenzenesulfonamide]
< 0.01	< 0.01	CN(C1CC1)S(=O)(=O)c1ccc(-c2cnc(N)c(-c3ccc4c(c3)OC[C@H](CO)NC4=O)c2)cc1 [(S)-4-(6-amino-5-(3-(hydroxymethyl)-5-oxo-2,3,4,5-tetrahydrobenzo[f][1,4]oxazepin-8-yl)pyridin-3-yl)-N-cyclopropyl-N-methylbenzenesulfonamide]
< 0.01	< 0.01	C[C@H]1CNc2cc(-c3cc(-c4ccc(S(=O)(=O)N(C)C5CC5)cc4)cnc3N)ccc2C(=O)N1 [(S)-4-(6-amino-5-(3-methyl-5-oxo-2,3,4,5-tetrahydro-1H-benzo[e][1,4]diazepin-8-yl)pyridin-3-yl)-N-cyclopropyl-N-methylbenzenesulfonamide]
< 0.01	< 0.01	C[C@H]1CNc2cc(-c3cc(-c4ccc(S(=O)(=O)NC5CC5)cc4)cnc3N)ccc2C(=O)N1 [(S)-4-(6-amino-5-(3-methyl-5-oxo-2,3,4,5-tetrahydro-1H-benzo[e][1,4]diazepin-8-yl)pyridin-3-yl)-N-cyclopropylbenzenesulfonamide]
< 0.05	< 0.01	C[C@H]1COc2cc(-c3cc(-c4ccc(S(=O)(=O)N(C)C5CC5)cc4)cnc3N)ccc2C(=O)N1 [(S)-4-(6-amino-5-(3-methyl-5-oxo-2,3,4,5-tetrahydrobenzo[f][1,4]oxazepin-8-yl)pyridin-3-yl)-N-cyclopropyl-N-methylbenzenesulfonamide]
< 0.05	< 0.01	CC(=O)NCc1ccc(-c2cnc(N)c(-c3ccc4c(c3)CCNC4=O)c2)cc1 [N-(4-(6-amino-5-(1-oxo-1,2,3,4-tetrahydroisoquinolin-6-yl)pyridin-3-yl)benzyl)acetamide]
< 0.05	< 0.01	CCS(=O)(=O)Nc1ccc(-c2cnc(N)c(-c3ccc4c(c3)CCNC4=O)c2)cc1 [N-(4-(6-amino-5-(1-oxo-1,2,3,4-tetrahydroisoquinolin-6-yl)pyridin-3-yl)phenyl)ethanesulfonamide]
< 0.01	< 0.01	C=CCN(C)S(=O)(=O)c1ccc(-c2cnc(N)c(-c3ccc4c(c3)CCNC4=O)c2)cc1 [N-allyl-4-(6-amino-5-(1-oxo-1,2,3,4-tetrahydroisoquinolin-6-yl)pyridin-3-yl)-N-methylbenzenesulfonamide]
< 0.05	< 0.01	O=C1NCCc2cc(-c3c[nH]c4ncc(-c5ccc(S(=O)(=O)NC6CC6)cc5)cc34)ccc21 [N-cyclopropyl-4-(3-(1-oxo-1,2,3,4-tetrahydroisoquinolin-6-yl)-1H-pyrrolo[2,3-b]pyridin-5-yl)benzenesulfonamide]
